{
  "source": "paper PMC2748937",
  "about": "(Nature structural & molecular biology, 2009)",
  "key": {"Grb14 RA-PH K252A": {"molecular_target": "T1, Grb14 RA-PH K252A (Homo sapiens, UniProt Q14449, K252A)", "T1 sequence (Q14449 106-356 K252A limits assumed)": "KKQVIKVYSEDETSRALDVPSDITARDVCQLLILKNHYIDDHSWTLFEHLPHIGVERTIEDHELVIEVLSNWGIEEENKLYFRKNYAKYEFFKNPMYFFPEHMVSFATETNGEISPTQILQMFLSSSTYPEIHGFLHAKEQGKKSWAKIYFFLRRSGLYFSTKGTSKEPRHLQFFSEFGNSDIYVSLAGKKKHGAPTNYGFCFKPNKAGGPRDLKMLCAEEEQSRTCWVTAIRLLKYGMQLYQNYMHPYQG", "test": "Fluorescence-polarization phosphoinositide binding, Grb14 RA-PH K252A", "conditions": "Grb14 K252A vs WT"}, "[1]": {"test_system": "Grb14 recruitment to the insulin receptor", "type": "cell-based", "conditions": "co-immunoprecipitation, data not shown"}, "crystal structure": {"molecular_target": "the molecule itself", "test": "crystal structure"}},
  "data": [
    {"molecule": "CCCCCC(=O)O[C@H](COC(=O)CCCCCNC(=O)CCC1=C(C)C2=Cc3ccc(-c4ccc(OC)cc4)n3[B-](F)(F)[N+]2=C1C)COP(=O)(O)O[C@H]1[C@H](O)[C@@H](OP(=O)(O)O)[C@H](OP(=O)(O)O)[C@@H](OP(=O)(O)O)[C@H]1O", "note": "[345P3, PI(3,4,5)P3]", "values": [
      {"measurement": "decrease in binding affinity relative to wild-type", "setting": "Grb14 RA-PH K252A", "result": "more than three"}
    ]},
    {"molecule": "COC[C@H]1OC(=O)c2coc3c2[C@@]1(C)C1=C(C3=O)[C@@H]2CCC(=O)[C@@]2(C)C[C@H]1OC(C)=O", "note": "[wortmannin]", "values": [
      {"measurement": "effect on recruitment of Grb14 to the insulin receptor", "setting": "[1]", "result": "PI-3K activity is not required for Grb14 recruitment to the receptor"}
    ]},
    {"molecule": "Grb10 RA-PH (residues 106-357 of human Grb10 isoform c (domain or fragment) GSHMAAAKQDVKVFSEDGTSKVVEILADMTARDLCQLLVYKSHSVDDNSWTLVEHHPHLGLERCLEDHELVVQVESTMASESKFLFRKNYAKYEFFKNPMNFFPEQMVTWSQQSNGSQTQLLQNFLNSSSSPEIQGFLHVKELGKKSWKKLYVCLRRSGLYCSTKGTSAAPRHLQLLADLEDSNIFSLIAGRKQYNAPTDHGLCIKPNKVRNETKELRLLCAEDEQTRTSWMTAFRLLKYGMLLYQNYRIPQQRKA", "values": [
      {"measurement": "binding result", "setting": "crystal structure", "result": "binds"}
    ]}
  ]
}
